Patent US10584115B2, “Substituted pyridine and pyrazine BMI-1 inhibitors” (PTC Therapeutics, Inc., priority 2013, dated 2020)
Read-outs that look alike come from different tables or passages of the source.

Legend:
Bmi-1 protein = test: Sandwich ELISA Assay (Bmi-1 protein level in HT-1080 cells after compound treatment); type: cell-based
Outline: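 Sandwich ELISA quantified Bmi-1 protein against recombinant standard (125–8000 pg/mL), with lysates captured overnight at 4 °C and signal by HRP/TMB at 450 nm (570 nm reference). Lysates came from HT-1080 cells incubated 40–48 h with test compounds in 0.5% DMSO.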

[1] = Table 1, Bmi-1 sandwich ELISA, read-out: ELISA EC50 value for Bmi-1 protein
[2] = read-out: ELISA EC50 value for Bmi-1 protein, Table 1, Bmi-1 sandwich ELISA

Row | SMILES | melting point [°C] | EC50 (Bmi-1 protein; [1]) [nM] | EC50 (Bmi-1 protein; [2]) [nM]
1 | FC(F)(F)c1ccc(Nc2cncc(-c3c(C4CC4)nc4ccc(C(F)(F)F)cn34)n2)cc1 [compound 250, 6-[2-cyclopropyl-6-(trifluoromethyl)imidazo[1,2-a]pyridin-3-yl]-N-[4-(trifluoromethyl)phenyl]pyrazin-2-amine] | 240 to 241 |  | 10 to 100
2 | FC(F)(F)Oc1ccc(Nc2cncc(-c3c(C4CC4)nc4ccc(C(F)(F)F)cn34)n2)cc1 [compound 252, 6-[2-cyclopropyl-6-(trifluoromethyl)imidazo[1,2-a]pyridin-3-yl]-N-[4-(trifluoromethoxy)phenyl]pyrazin-2-amine] | 213 to 215 | 100 to 3000 | 
3 | Cc1nn(CC(F)(F)F)c(C)c1-c1cncc(Nc2ccc(C(F)(F)F)cc2)n1 [compound 253, 6-[3,5-dimethyl-1-(2,2,2-trifluoroethyl)-1H-pyrazol-4-yl]-N-[4-(trifluoromethyl)phenyl]pyrazin-2-amine] | 90 to 91 |  | 1 to 10
4 | CC(=O)n1nc(C)c(-c2cncc(Nc3ccc(C(F)(F)F)cc3)n2)c1C [compound 277, 1-[3,5-dimethyl-4-(6-{[4-(trifluoromethyl)phenyl]amino}pyrazin-2-yl)-1H-pyrazol-1-yl]ethanone] | 199 to 200 | 100 to 3000 | 
5 | CCOC(=O)n1nc(C)c(-c2cncc(Nc3ccc(C(F)(F)F)cc3)n2)c1C [compound 278, ethyl 3,5-dimethyl-4-(6-{[4-(trifluoromethyl)phenyl]amino}pyrazin-2-yl)-1H-pyrazole-1-carboxylate] | 122 to 123 | 100 to 3000 | 
6 | CCOC(=O)n1nc(C)c(-c2cncc(Nc3ccc(OC(F)F)cc3)n2)c1C [compound 279, ethyl 4-(6-{[4-(difluoromethoxy)phenyl]amino}pyrazin-2-yl)-3,5-dimethyl-1H-pyrazole-1-carboxylate] | 92 to 93 | 100 to 3000 | 
7 | Cc1c(-c2cncc(Nc3ccc(OC(F)(F)F)cc3)n2)c(C(F)(F)F)nn1C [compound 281, 6-[1,5-dimethyl-3-(trifluoromethyl)-1H-pyrazol-4-yl]-N-[4-(trifluoromethoxy)phenyl]pyrazin-2-amine] | 157 to 158 | 100 to 3000 | 
8 | Cc1nc2ccc(F)cn2c1-c1cc(C#N)cc(Nc2ccc(C(F)(F)F)c(F)c2)n1 [compound 312, 2-(6-fluoro-2-methylimidazo[1,2-a]pyridin-3-yl)-6-{[3-fluoro-4-(trifluoromethyl)phenyl]amino}pyridine-4-carbonitrile] | 245 to 249 | 10 to 100 | 
9 | Cc1nc2ccc(F)cn2c1-c1cc(N)cc(Nc2ccc(C(F)(F)F)cc2)n1 [compound 316, 6-(6-fluoro-2-methylimidazo[1,2-a]pyridin-3-yl)-N^2-[4-(trifluoromethyl)phenyl]pyridine-2,4-diamine] | 161 to 163 |  | 1 to 10
10 | Cc1nc2ccc(F)cc2n1-c1cncc(Nc2ccc(OC(F)F)c(F)c2)n1 [compound 320, N-[4-(difluoromethoxy)-3-fluorophenyl]-6-(6-fluoro-2-methyl-1H-benzimidazol-1-yl)pyrazin-2-amine] | 230 to 231 | 10 to 100 | 
11 | CCn1nc(C(F)(F)F)c(-c2cncc(Nc3ccc(C(F)(F)F)cc3)n2)c1C [compound 329, 6-[1-ethyl-5-methyl-3-(trifluoromethyl)-1H-pyrazol-4-yl]-N-[4-(trifluoromethyl)phenyl]pyrazin-2-amine] | 150 to 151 | 10 to 100 | 
12 | CCn1nc(C(F)(F)F)c(-c2cncc(Nc3ccc(OC(F)(F)F)cc3)n2)c1C [compound 331, 6-[1-ethyl-5-methyl-3-(trifluoromethyl)-1H-pyrazol-4-yl]-N-[4-(trifluoromethoxy)phenyl]pyrazin-2-amine] | 128 to 129 | 100 to 3000 | 
13 | CCc1nn(C)c(CC)c1-c1cncc(Nc2ccc(C(F)(F)F)cc2)n1 [compound 332, 6-(3,5-diethyl-1-methyl-1H-pyrazol-4-yl)-N-[4-(trifluoromethyl)phenyl]pyrazin-2-amine] | 59 to 60 | 10 to 100 | 
14 | CCc1nn(C)c(CC)c1-c1cncc(Nc2ccc(OC(F)(F)F)cc2)n1 [compound 334, 6-(3,5-diethyl-1-methyl-1H-pyrazol-4-yl)-N-[4-(trifluoromethoxy)phenyl]pyrazin-2-amine] | 122 to 123 | 10 to 100 | 

The next lines start with results.

Row | melting point [°C] | EC50 (Bmi-1 protein; [1]) [nM] | SMILES | EC50 (Bmi-1 protein; [2]) [nM]
15 | 160 to 162 | 1 to 10 | Cc1nc2ccc(F)cn2c1-c1cncc(Nc2ccc(C(F)(F)F)cc2)n1 [compound 244, 6-(6-fluoro-2-methylimidazo[1,2-a]pyridin-3-yl)-N-[4-(trifluoromethyl)phenyl]pyrazin-2-amine] | 
16 | 171 to 173 | 1 to 10 | Cc1nc2ccc(F)cn2c1-c1cncc(Nc2ccc(OC(F)F)cc2)n1 [compound 245, N-[4-(difluoromethoxy)phenyl]-6-(6-fluoro-2-methylimidazo[1,2-a]pyridin-3-yl)pyrazin-2-amine] | 
17 | 163 to 165 | 1 to 10 | Cc1nc2ccc(F)cn2c1-c1cncc(Nc2ccc(OC(F)(F)F)cc2)n1 [compound 246, 6-(6-fluoro-2-methylimidazo[1,2-a]pyridin-3-yl)-N-[4-(trifluoromethoxy)phenyl]pyrazin-2-amine] | 
18 | 241 to 243 | 1 to 10 | Cc1nc2ccc(F)cn2c1-c1cc(C#N)cc(Nc2ccc(C(F)(F)F)cc2)n1 [compound 247, 2-(6-fluoro-2-methylimidazo[1,2-a]pyridin-3-yl)-6-{[4-(trifluoromethyl)phenyl]amino}pyridine-4-carbonitrile] | 
19 | 221 to 223 | 1 to 10 | Cc1nc2ccc(F)cn2c1-c1cc(C#N)cc(Nc2ccc(OC(F)F)cc2)n1 [compound 248, 2-{[4-(difluoromethoxy)phenyl]amino}-6-(6-fluoro-2-methylimidazo[1,2-a]pyridin-3-yl)pyridine-4-carbonitrile] | 
20 | 209 to 210 | 10 to 100 | Cc1nc2ccc(F)cn2c1-c1cc(C#N)cc(Nc2ccc(OC(F)(F)F)cc2)n1 [compound 249, 2-(6-fluoro-2-methylimidazo[1,2-a]pyridin-3-yl)-6-{[4-(trifluoromethoxy)phenyl]amino}pyridine-4-carbonitrile] | 
21 | 267 to 269 | 1 to 10 | CCc1nc2ccc(F)cc2n1-c1cncc(Nc2ccc(C(F)(F)F)cc2)n1 [compound 259, 6-(2-ethyl-6-fluoro-1H-benzimidazol-1-yl)-N-[4-(trifluoromethyl)phenyl]pyrazin-2-amine] | 
22 | 205 to 207 | 1 to 10 | CCc1nc2ccc(F)cc2n1-c1cncc(Nc2ccc(OC(F)F)cc2)n1 [compound 260, N-[4-(difluoromethoxy)phenyl]-6-(2-ethyl-6-fluoro-1H-benzimidazol-1-yl)pyrazin-2-amine] | 
23 | 223 to 225 | 10 to 100 | Cc1nc2ccc(F)cc2n1-c1cc(C#N)cc(Nc2ccc(C(F)(F)F)cc2)n1 [compound 261, 2-(6-fluoro-2-methyl-1H-benzimidazol-1-yl)-6-{[4-(trifluoromethyl)phenyl]amino}pyridine-4-carbonitrile] | 
24 | 231 to 232 | 10 to 100 | Cc1nc2ccc(F)cc2n1-c1cc(C#N)cc(Nc2ccc(OC(F)F)cc2)n1 [compound 262, 2-{[4-(difluoromethoxy)phenyl]amino}-6-(6-fluoro-2-methyl-1H-benzimidazol-1-yl)pyridine-4-carbonitrile] | 
25 | 182 to 183 | 1 to 10 | Cc1nn(C)c(C)c1-c1cc(C#N)cc(Nc2ccc(C(F)(F)F)cc2)n1 [compound 263, 2-{[4-(trifluoromethyl)phenyl]amino}-6-(1,3,5-trimethyl-1H-pyrazol-4-yl)pyridine-4-carbonitrile] | 
26 | 144 to 145 | 1 to 10 | Cc1nn(C)c(C)c1-c1cc(C#N)cc(Nc2ccc(OC(F)F)cc2)n1 [compound 264, 2-{[4-(difluoromethoxy)phenyl]amino}-6-(1,3,5-trimethyl-1H-pyrazol-4-yl)pyridine-4-carbonitrile] | 
27 | 135 to 136 | 10 to 100 | Cc1nn(C)c(C)c1-c1cc(C#N)cc(Nc2ccc(OC(F)(F)F)cc2)n1 [compound 265, 2-{[4-(trifluoromethoxy)phenyl]amino}-6-(1,3,5-trimethyl-1H-pyrazol-4-yl)pyridine-4-carbonitrile] | 
28 | 216 to 218 | 10 to 100 | Cc1nc2ccc(F)cn2c1-c1cncc(Nc2ccc(C(F)(F)F)c(F)c2)n1 [compound 310, 6-(6-fluoro-2-methylimidazo[1,2-a]pyridin-3-yl)-N-[3-fluoro-4-(trifluoromethyl)phenyl]pyrazin-2-amine] | 
29 | 231 to 233 | 1 to 10 | Cc1nc2ccc(F)cn2c1-c1cc(C#N)cc(Nc2ccc(OC(F)F)c(F)c2)n1 [compound 311, 2-{[4-(difluoromethoxy)-3-fluorophenyl]amino}-6-(6-fluoro-2-methylimidazo[1,2-a]pyridin-3-yl)pyridine-4-carbonitrile] | 
30 | 182 to 183 | 1 to 10 | Cc1nc2ccc(F)cn2c1-c1cc(N)cc(Nc2ccc(OC(F)F)c(F)c2)n1 [compound 315, N^2-[4-(difluoromethoxy)-3-fluorophenyl]-6-(6-fluoro-2-methylimidazo[1,2-a]pyridin-3-yl)pyridine-2,4-diamine] | 
31 | 172 to 174 | 1 to 10 | Cc1nn(CCO)c(C)c1-c1cncc(Nc2ccc(C(F)(F)F)cc2)n1 [compound 335, 2-[3,5-dimethyl-4-(6-{[4-(trifluoromethyl)phenyl]amino}pyrazin-2-yl)-1H-pyrazol-1-yl]ethanol] | 
